Laboratory results from patent publication US6433178B1, “3-alkyl-3-phenyl-piperidines” (Warner-Lambert Company, priority 1996, dated 2002).

Columns and labels:
NK3 receptors [1] = target: T1, NK3 receptors (Homo sapiens, UniProt P29371); test: Receptor binding in transfected CHO cells (125I-labeled ligand displacement), NK3; details: CHO cells expressing human NK3; 0.2 nM 125I-labeled ligand; 1 hour at room temperature
T1 construct: expressed in transfected cells; host or cells: CHO cells
T1 sequence (P29371 1-465): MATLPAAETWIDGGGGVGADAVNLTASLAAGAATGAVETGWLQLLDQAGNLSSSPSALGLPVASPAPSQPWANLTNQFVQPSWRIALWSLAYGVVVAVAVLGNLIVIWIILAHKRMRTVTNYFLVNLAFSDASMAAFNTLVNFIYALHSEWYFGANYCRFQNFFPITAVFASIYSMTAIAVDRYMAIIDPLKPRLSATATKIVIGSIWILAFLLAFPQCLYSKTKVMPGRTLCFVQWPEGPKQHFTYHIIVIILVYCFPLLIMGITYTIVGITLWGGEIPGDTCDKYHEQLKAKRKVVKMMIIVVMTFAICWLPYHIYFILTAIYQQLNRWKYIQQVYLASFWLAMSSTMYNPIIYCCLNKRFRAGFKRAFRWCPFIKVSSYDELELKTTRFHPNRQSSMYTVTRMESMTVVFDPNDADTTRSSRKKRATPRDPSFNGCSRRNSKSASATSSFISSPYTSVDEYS
Experimental: (§1) 1. Receptor Binding in Transfected CHO Cells
(§2) CHO cells expressing either human NK1 or NK3 receptors were cultured in Ham's F-12 Nutrient Mixture supplemented with 10% fetal call serum and 1% penicillin/streptomycin. Cells were seeded to 96-well Wallac (Gaithersburg, Md.) rigid crosstalk corrected cell culture plate 1 day before experiment. On the day of each experiment, cells were washed twice with phosphate buffered saline (PBS) and appropriate agonists or antagonists were added and incubated in 0.2 nM ^125I-labeled ligand in PBS containing 0.4 mg/mL BSA, 0.08 mg/mL bacitracin, 0.004 mg/mL chymostatin, 0.004 mg/mL leupeptin, 1 μM thiorphan, 25 μM phosphoramidon, and 2 mM MnCl2. The cells were incubated for 1 hour at room temperature and the reactions terminated by two washes with ice cold PBS. Fifty microliters of 2% SDS followed by 175 μL of Ready Gel (Beckman) were added to each well. Plates were vortexed, and the radioactivity was quantified in a Wallac 1450 microbeta scintillation counter. Nonspecific binding was determined in the presence of 1 μM unlabeled corresponding ligand. Receptor binding data were analyzed with nonlinear curve fitting using KaleidaGraph software package (PCS Inc., Reading, Pa.). IC50 values were determined using a modified Hill equation, [formula]
(§3) where cold ligand represents unlabeled ligand, L represents the concentration of unlabeled ligand, n the Hill coefficient, and IC50 the concentration of unlabeled ligand that causes 50% inhibition of the total specific binding of 0.2 nM radiolabeled ligand.

human NK1 receptors = target: T2, human NK1 receptors (Homo sapiens, UniProt P25103); test: Receptor binding in transfected CHO cells (125I-labeled ligand displacement), NK1; details: CHO cells expressing human NK1; 0.2 nM 125I-labeled ligand; 1 hour at room temperature
T2 construct: expressed in transfected cells; host or cells: CHO cells
Experimental: as §1, §2, §3

NK3 receptors [2] = target: T1, NK3 receptors; test: Inhibition of agonist-induced phosphatidylinositol turnover (inositol phosphates accumulation) in transfected CHO cells; assay type: cell-based; details: CHO cells expressing NK3 receptors; 1 μM of tested compounds; pKB=log(dose ratio−1)−log[B]
Experimental: 2. Inhibition of Phosphatidylinositol Turnover in Transfected CHO Cells
The inhibitory effects of these compounds on agonist-induced phosphatidylinositol turnover was estimated by measuring their effects on inositol phosphates (IP) accumulation in CHO cells expressing NK3 receptors. Briefly, cells (10,000/well) were seeded in 96-well cell culture plates 24 hours before changing medium to EMEM/F-12 (w/Earle's salt, w/glutamine; GIBCOL) containing 10 μCi/mL [^3H]inositol. After overnight incubation with [^3H]inositol, medium was removed and cells were washed twice with assay buffer (MEM with 10 mM LiCl, 20 mM HEPES, and 1 mg/mL BSA). Cells were then incubated with various concentrations of agonists with or without 1 μM of tested compounds for 1 hour. Reactions were stopped by two washes with ice-cold PBS followed by the addition of 0.1 mL ice-cold 5% TCA to each well. The TCA extract was applied to a […] column containing AG 1-X8 resin (Bio-Rad) and washed three times with 5 mM myo-inositol. Inositol phosphates (IP) was eluted with 1 M ammonium formate/0.1 M formic acid. Radioactivity was determined by liquid scintillation counting. Data were analyzed with nonlinear curve fitting using KaleidaGraph software package (PCS Inc, Reading, Pa.). The pKB values in Table 2 were calculated according to the formula: pKB=log(dose ratio−1)−log[B].

[3] = Pharmacokinetics in male Wistar rats after an oral dose; assay type: in vivo; details: oral dose of ~20 mg/kg, solution in PEG 400/Ethanol/Water (40/15/45); for AUC / Cmax / Tmax / half-life: rat, plasma; for AUC: read-out: AUC(0-tldc) (area under the plasma concentration-time curve from zero time to the last detectable concentration); for Cmax: read-out: Cmax (the highest plasma concentration); for Tmax: read-out: tmax (time to reach the highest plasma concentration); for half-life: read-out: t½ (terminal elimination half-life) (converted)

T2 sequence (P25103 whole entry): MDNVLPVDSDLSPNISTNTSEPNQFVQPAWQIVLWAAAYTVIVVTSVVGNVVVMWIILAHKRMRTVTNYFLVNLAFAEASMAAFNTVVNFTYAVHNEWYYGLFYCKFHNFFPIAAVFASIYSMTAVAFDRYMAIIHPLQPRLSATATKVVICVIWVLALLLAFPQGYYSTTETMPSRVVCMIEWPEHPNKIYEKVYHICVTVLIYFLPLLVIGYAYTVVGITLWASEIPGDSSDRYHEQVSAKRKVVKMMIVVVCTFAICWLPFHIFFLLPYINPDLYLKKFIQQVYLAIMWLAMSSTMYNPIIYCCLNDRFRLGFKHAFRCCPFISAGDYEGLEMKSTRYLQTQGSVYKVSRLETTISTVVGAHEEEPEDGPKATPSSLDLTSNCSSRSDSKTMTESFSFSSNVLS

SMILES | IC50 (NK3 receptors [1]) | IC50 (human NK1 receptors) | pKB (NK3 receptors [2]) | tmax (time to reach the highest plasma concentration) ([3]; mean) | AUC(0-tldc) (area under the plasma concentration-time curve from zero time to the last detectable concentration) ([3]; mean (SD)) | Cmax (the highest plasma concentration) ([3]; mean (SD)) | Kb (NK3 receptors [2]) | AUC ([3]; mean (SD)) | Cmax ([3]; mean (SD)) | Tmax ([3]; mean) | half-life ([3]; mean)
Cl.O=C(c1ccccc1)N1CCCC(CCCN2CCC(O)(CS(=O)(=O)c3ccccc3)CC2)(c2ccc(Cl)c(Cl)c2)C1 (centres unmarked) [Compound 20-1, {3-[3-(4-Benzensulfonylmethyl-4-hydroxy-piperidin-1-yl]-3-(3,4-dichlorophenyl)-piperidin-1-yl}-phenyl-methanone monohydrochloride] | 5.9 ± 0.4 nM | > 1000 nM | – | – | – | – | – | – | – | – | –
Cl.O=C(c1ccccc1)N1CCCC(CCCN2CCC(O)(CS(=O)(=O)c3ccccc3)CC2)(c2ccc(Cl)c(Cl)c2)C1 (centres unmarked) [Compound 20-1] | – | – | 8.2 ± 0.4 | 1.3 h | 366 (140) ng · hr/mL | 74.0 (12.9) ng/mL | – | – | – | – | –
Cl.O=C(c1ccccc1)N1CCCC(CCCN2CCC(O)(c3ccccc3)CC2)(c2ccc(Cl)c(Cl)c2)C1 (centres unmarked) [Compound 20-2, {3-(3,4-Dichlorophenyl)-3-[3-(4-hydroxy-4-phenyl-piperidin-1-yl)-propyl]-piperidin-1-yl}-phenyl-methanone monohydrochloride] | 6.2 ± 0.6 nM | > 1000 nM | – | – | – | – | 5.01 nM | 716 ng·h/mL | 125 ng/mL | 1.3 h | 7.4 h
Cl.O=C(c1ccccc1)N1CCCC(CCCN2CCC(c3ccccc3)CC2)(c2ccc(Cl)c(Cl)c2)C1 (centres unmarked) [Compound 20-3, {3-(3,4-Dichlorophenyl)-3-[3-(4-phenyl-piperidin-1-yl)-propyl]-piperidin-1-yl}-phenyl-methanone monohydrochloride] | 17.8 ± 1.5 nM | 694 ± 89 nM | – | – | – | – | 12.6 nM | 572 ng·h/mL | 107 ng/mL | 1.8 h | –
CC(=O)N(C)C1(c2ccccc2)CCN(CCC[C@]2(c3ccc(Cl)c(Cl)c3)CCCN(C(=O)c3ccccc3)C2)CC1 [SR 142801, reference compound] | – | – | – | – | – | – | – | 703 ng·h/mL | 133 ng/mL | 1.8 h | 5.3 h
